Entries after “also recorded” stand apart in the source; their conditions may differ. Where two headings read alike, the source gives them in different places.
Tests used:
[1] = system: α1C subunit of L-type Ca^2+ channels; assay: Q-PCR of α1C mRNA expression in HCCSMC; type: cell-based, human; settings: for induction of α1C mRNA expression: HCCSMC
Description: (§1) Primary cultures of HCCSMC: Human tissue was obtained from the descending and sigmoid colons with approval of the University of Texas Medical Branch Institutional Review Board from disease free margins of resected segments from patients undergoing surgery for colon cancer. The circular muscle layer was separated from the taenia coli and lamina propria with a tissue slicer. The circular muscle layer was collected in ice-cold HEPES buffer (in mM: 120 NaCl, 2.6 KH2S04, 4 KCl, 2 CaCl2, 0.6 MgCl2, 25 HEPES, 14 glucose and 2.1% essential amino acid mixture, pH 7.4). Two successive digestions with papain and collagenase, as described previously by Shi and Sarna, were used to disperse smooth muscle cells. The cells were cultured in RPMI 1640 (Gibco/Invitrogen, Carlsbad, Calif.) supplemented with 10% fetal bovine serum in the presence of 100 units/mL of penicillin G, 100 μg/mL of streptomycin sulfate and 0.25 μg/mL of amphoteracin B. The culture medium was changed every three days. Cells in passages 3 to 5 were used in all experiments. All cells were cultured in serum-free medium for at least 15 h prior to experiments to eliminate the possible effects of growth factors. […] The cultures of colonic smooth muscle cells retain their contractile phenotype. Each experiment used cells or muscle strips from at least three different subjects.
Total RNA was extracted from cells using the Qiagen RNeasy kit (Qiagen, Valencia, Calif.) by following the manufacturer's protocol. The cDNAs were made using the Superscript First-Strand Synthesis System (Invitrogen, Carlsbad, Calif.).
Quantitive real-time-polymerase chain reaction (Q-PCR). Q-PCR assay is employed to determine gene expression using TaqMan technology on Applied Biosystems 7000 sequence detection system (UTMB Real-time PCR Core Facility). Applied Biosystems Assays-By-Design containing a 20× assay mix of primers and TaqMan MGB probes (FAMTM dye-labeled) are used for a target gene and the endogenous control, human 18s RNA. These assays were designed using primers that span exon-exon junctions so as not to detect genomic DNA. All primer and probe sequences were searched against the Celera data base to confirm specificity. The primer and probe sequences used were as follows: human Cav1.2 channel oα1C intermediate form (Cav1.2b) probe spanning exon 1b and exon 2, […] (SEQ ID NO:4): forward primer, […] (SEQ ID NO:5): reverse primer, […] (SEQ ID NO:6). Human Cav1.2 channel α1C long form (Cav1.2a) probe spanning exon 1a and exon 2: […] (SEQ ID NO:7): forward primer, […] (SEQ ID NO:8): reverse primer. […] (SEQ ID NO:6).

α1C1b promoter = α1C1b promoter luciferase reporter activity in HCCSMC; type: cell-based, human; settings: for α1C1b promoter reporter (luciferase) activity: substance by itself; for effect on enhancement of α1C1b promoter activity by VIP: with VIP
Protocol: Transient cell transfections and luciferase activity. FuGENE 6 (Roche, Mannheim, Germany) is used to transfect luciferase-expressing pGL2 constructs in HCCSMC. The cells in passage 4 are seeded into 12-well plates (Costar, Acton, Mass.) and grown to 70% to 80% confluency. Transfections are carried out by incubation of cells in each well with 1.5 μl of FuGENE 6, 0.5 μg of pGL2 construct, and 0.125 μg of pSEAP2 Control Vector (BD Biosciences Clontech, Palo Alto, Calif.) for 24 h as per manufacturer's instructions. The pSEAP2 Control Vector is co-transfected for normalization of data. The transfected cells were treated with stimulus or medium control and harvested after 24 hours. Twenty μl of the supernatant of the cell lysates are taken for the measurement of luciferase activity by a luminometer (Promega, Madison, Wis.). The SEAP activity is measured with a Clontech SEAP detection kit by following the manufacturer's instructions.
Promoter constructs, 5′-deletions, and site-directed mutagenesis. The promoter constructs of hα1c1b are prepared by PCR amplification of human genomic DNA (Roche, Indianapolis, Ind.) and digested partially with Hind III (Promega, Madison, Wis.) using the FailSafe PCR kit (Epicentre, Madison, Wis.). The PCR product is subcloned into pDrive Cloning Vector with the PCR Cloning^plus kit (Qiagen, Valencia, Calif.) and SURE 2 supercompetent cells (Stratagene, La Jolla, Calif.) and subsequently transferred to the luciferase expression plasmid pGL2-Basic Vector (Promega, Madison, Wis.). The deletion constructs are made using the full length promoter construct as a template in PCR reactions. The same methods and kits are used to subclone the sequenced PCR products into the pDrive and pGL2 vector. The site-directed mutagenesis is carried out using QuikChange® II XL Site-Directed Mutagenesis Kit from Stratagene (La Jolla, Calif.), as per manufacturer's instructions.

Cav1.2a = settings: neonatal rat ventricular myocytes; cited from earlier work
[2] = system: rat middle colon muscle strips; assay: Osmotic pump administration in rats, contractile response of colon muscle strips; type: in vivo; settings: systemic administration by osmotic pump for 3 days
Protocol: (§2) Muscle bath experiments. Pure circular muscle strips (2 mm×10 mm) are prepared from resected human colon segments. The strips are mounted in 5 ml baths filled with carbonated Krebs solution (in mM: 118 NaCl, 4.7 KCl, 2.5 CaCl2, 1 NaH2PO4, 1-2 MgCl2, 11 D-glucose, and 25 NaHCO3) at 37° C. (Siebenlist et al., 1994; Barnes and Karin, 1997). The muscle strips are equilibrated for 1 h at 1 g tension and then stretched until maximal response is obtained to 10^−4 m ACh. The bathing solution is replaced every 15 min. Contractions are measured by force transducers and analyzed by DATAQ (Akron, Ohio) software.
(§3) Vertebrate Animals. Sprague-Dawley rats were used. For tissue harvesting, the rats were anesthetized with 5% isoflurame in 100% oxygen for 5 to 7 minutes followed by i.p. injection of 50 mg/kg ketamine.
(§4) Osmotic pumps were implanted under anesthesia as discussed above. Lateral surface of left back were shaven and cleaned with betadine. A 2 cm incision was made in the skin and subcutaneous facia and muscle separated. The micro-osmotic pump were implanted intramuscularly and the incision was closed.

[3] = system: TNBS-induced inflammation; type: in vivo, rat; settings: for suppression of contractile response, with sub-threshold dose of TNBS: osmotic pump plus TNBS 30 mg/kg, compared with TNBS 130 mg/kg
Protocol: as §2, §3, §4
Colonic inflammation was induced by intraluminal injection of 30 mg/kg or 130-mg/kg trinitrobenzene sulfonic acid (TNBS) under anesthesia, as described above.

[4] = system: human colonic circular muscle strips; assay: Muscle bath: contractile response of human colonic circular muscle strips; type: cell-based
Protocol: as §2
The protocol for transfection of sense and antisense oligonucleotides in freshly obtained muscle strips was similar to that in HCCSMC. The circular muscle layer was isolated from the fall thickness human colon, and sliced into 2 mm×10 mm muscle strips. The strips were incubated in RPMI 1640 without serum. The sense and antisense oligonucleotides (10 μM) were added into the medium for 24 h before incubation with 20 ng/mL TNFα for 24 h.

p65 subunit = assay: Nuclear abundance and binding of NF-κB p65 in HCCSMC; type: cell-based, human
Protocol: Cytoplasmic and nuclear protein, and RNA extraction: Cytoplasmic and nuclear proteins were prepared as described earlier by Shi et al. Briefly, the cells were washed twice with phosphate-buffered saline solution and then with buffer A (in mM: 10 HEPES, 1.5 MgCl2, 10 KCl, 0.5 dithiothreitol, 0.5 phenylmethylsulfrenyl fluoride [PMSF]; 10 ng/mL leupeptin, and 10 ng/mL aprotinin). The cells were resuspended in 25 μL of buffer A containing 0.25% NP-40 and incubated at 4° C. for 10 minutes. After centrifugation at 12,000 g for 10 minutes, the supernatant was collected as cytoplasmic extract. The nuclear pellet was resuspended in 20 μL of buffer C (in mM: 20 HEPES, […], 1.5 MgCl2, 0.2 ethylenediaimetetraacetic acid (EDTA), 0.5 DTT, 0.5 PMSF; 24% glycerol, 10 ng/mL leupeptin, and 10 ng/mL aprotinin) and incubated on ice with frequent vortexing for 15 minutes. The samples were centrifuged at 14,000 g for 10 minutes, and the supernatant (nuclear extract) was transferred to a fresh tube with 5 volumes of buffer D (in mM: 20 HEPES, 0.2 EDTA, 50 KCl, 0.5 DTT, 0.5 PMSF; 20% glycerol, 10 ng/mL leupeptin, and 10 ng/mL aprotinin). The protein concentration was determined by using the Bio-Rad assay kit (Bio-Rad Laboratories, Hercules, Calif.).
Electrophoretic mobility shift assay. […]

CRE1 and CRE2 = assay: Oligonucleotide agarose conjugate pull-down of CREB; type: cell-based, human; settings: with VIP, FIG. 10
[5] = system: α1C subunit of L-type Ca^2+ channels; assay: α1C protein expression (Western immunoblotting); type: cell-based, human; settings: muscle strip tissue, FIG. 14 top
Description: as §1
Western immunoblotting. Each lane is loaded with 10 μg protein and size-separated on a 10% SDS polyacrylamide gel. After blotting, the nitrocellulose membranes are blocked with 10% non-fat dried milk at 4° C. overnight. The blots are incubated with appropriate dilution of the antibody at 4° C. overnight and appropriate dilution of designated secondary antibody at room temperature for 1 h. β-actin is used as internal control.

## O=S(=O)(NCCNC/C=C/c1ccc(Br)cc1)c1cccc2cnccc12 [H-89]
[1]; FIG. 4
  effect on α1C mRNA on its own: no effect on its own
[1]; FIG. 4, with VIP
  effect on VIP enhancement of α1C mRNA: partially inhibited the effect of VIP

## COc1cccc(-c2cc(=O)c3ccccc3o2)c1N [PD98059]
α1C1b promoter
  α1C1b promoter reporter (luciferase) activity: little effect
  effect on enhancement of α1C1b promoter activity by VIP: little effect

## Oc1ccc(-c2nc(-c3ccncc3)c(-c3ccc(F)cc3)[nH]2)cc1 [SB202190]
α1C1b promoter
  α1C1b promoter reporter (luciferase) activity: little effect
  effect on enhancement of α1C1b promoter activity by VIP: somewhat blunt the enhancement

## CC(C)NCC(O)c1ccc(O)c(O)c1 (centres unmarked) [isoproterenol]
Cav1.2a
  Cav1.2a mRNA: transient increase in Cav1.2a mRNA
  increase in peak current density: about 40%

## NC[C@H](O)c1ccc(O)c(O)c1 [norepinephrine]
[1]
  induction of α1C mRNA expression: induced the expression of α1C mRNA

## (p-chloro-D-Phe^6, Leu^17)-VIP
[2]
  contractile response of rat colon muscle strips to ACh: suppressed the contractile response
[3]; listed as VIP receptor antagonist
  suppression of contractile response, with sub-threshold dose of TNBS: increased the suppression of contractile response
[3]; listed as VIP/PACAP receptor antagonist
  suppression of contractile response, with sub-threshold dose of TNBS: enhanced the suppression of contractility
[3]; osmotic pump, no TNBS, FIG. 15
  contractile response to ACh, antagonist by itself: suppressed the contractile response
[3]; rat, in vivo
  diarrhea: did not develop diarrhea

## TNFα
[4]; strips incubated 24 h, organ bath
  contractile response of circular muscle strips to ACh: suppresses their contractile response to ACh; also recorded: suppressed the contractile response to ACh; also recorded: suppression of contractility
p65 subunit
  nuclear abundance and binding of p65: enhanced the nuclear abundance and binding of p65
CRE1 and CRE2
  effect on CREB binding after VIP treatment: abrogated; also recorded: reduces the binding after VIP treatment
α1C1b promoter
  α1C1b promoter reporter (luciferase) activity: reduced luciferase activity; also recorded: suppressed it

## pituitary adenylate cyclase-activating peptide [PACAP]
[4]; muscle strips, treatment before/with TNFα
  effect on TNFα suppression of contractile response to ACh: significantly reduces the suppression
[5]
  effect on TNFα suppression of α1C protein: minimized
[1]
  induction of α1C mRNA expression: induced expression
[3]; intact rat model, treatment through osmotic pumps, expected
  effect on suppression of contractility due to TNBS-induced inflammation: partially inhibit the suppression of contractility
α1C1b promoter; with TNFα
  effect on suppression of α1C1b promoter activity by TNFα: significantly blocked this reduction
